# From patent US9067922B2, “Chemical compounds” (Pfizer Limited, priority 2013, dated 2015)
# Target: URAT-1 transporter (Homo sapiens (Human), UniProt Q96S37)
# Experiment: URAT-1 inhibitor activity: [14C]-uric acid uptake in CHO-URAT1(L)GFP#8 (CHO#8) cells, scintillation proximity
# Type: cell-based
# Details: inhibition of [14C]-uric acid (30 nM) uptake into CHO#8 cells; compound 0 to 10 μM; 4 parameter logistic fit
# How it was run: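 CHO cells stably expressing human URAT1 long isoform–eGFP fusion, pre-incubated 1 h in chloride-containing buffer pH 7.4, then given 30 nM [14C]-uric acid with compound (0–10 μM, 0.25% DMSO) in chloride-free gluconate buffer pH 7.4. Uptake measured by scintillation proximity on Cytostar plates.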
# Chain of URAT-1 transporter (Q96S37 other isoform, or with tags, fused parts or gaps): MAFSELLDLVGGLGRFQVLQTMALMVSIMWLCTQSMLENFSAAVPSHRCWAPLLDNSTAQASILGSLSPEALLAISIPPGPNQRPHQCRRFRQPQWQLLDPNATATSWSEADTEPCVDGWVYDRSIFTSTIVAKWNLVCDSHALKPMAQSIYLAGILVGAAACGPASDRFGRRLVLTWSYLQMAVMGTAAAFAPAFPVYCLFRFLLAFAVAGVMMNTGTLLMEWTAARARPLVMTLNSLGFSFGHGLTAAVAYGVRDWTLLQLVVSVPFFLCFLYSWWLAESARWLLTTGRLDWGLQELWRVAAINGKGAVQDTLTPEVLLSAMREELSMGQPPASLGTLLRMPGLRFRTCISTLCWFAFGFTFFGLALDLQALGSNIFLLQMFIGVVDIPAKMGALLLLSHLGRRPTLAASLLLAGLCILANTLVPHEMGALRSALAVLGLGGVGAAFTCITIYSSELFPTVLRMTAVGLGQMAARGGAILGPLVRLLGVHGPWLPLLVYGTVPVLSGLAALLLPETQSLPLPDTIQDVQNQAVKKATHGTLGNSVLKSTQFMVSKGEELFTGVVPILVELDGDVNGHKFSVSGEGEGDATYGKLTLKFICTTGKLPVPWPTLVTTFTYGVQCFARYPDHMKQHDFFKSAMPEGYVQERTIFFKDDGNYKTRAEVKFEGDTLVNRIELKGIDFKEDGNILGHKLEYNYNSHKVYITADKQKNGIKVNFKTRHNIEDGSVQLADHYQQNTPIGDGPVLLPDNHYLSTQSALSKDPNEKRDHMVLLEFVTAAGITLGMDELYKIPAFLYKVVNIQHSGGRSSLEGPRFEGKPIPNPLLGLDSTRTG
row,SMILES,IC50 [nM]
1,"Cc1cc(Oc2ccc(S(=O)(=O)Nc3ccc(F)cn3)cc2C#N)cc(Cl)c1C [Example 171, 4-(3-chloro-4,5-dimethylphenoxy)-3-cyano-N-(5-fluoropyridin-2-yl)benzenesulfonamide]",215
2,"N#Cc1cc(S(=O)(=O)Nc2ccc(F)cn2)ccc1Oc1cc(Cl)ccc1Cl [Example 170, 3-cyano-4-(2,5-dichlorophenoxy)-N-(5-fluoropyridin-2-yl)benzenesulfonamide]",570
3,"N#Cc1cc(S(=O)(=O)Nc2ccc(F)cn2)ccc1Oc1cccnc1 [Example 194, 3-cyano-N-(5-fluoropyridin-2-yl)-4-(pyridin-3-yloxy)benzenesulfonamide]",> 10000
4,"COc1ccccc1Oc1ccc(S(=O)(=O)Nc2ccc(F)cn2)cc1C#N [Example 142, 3-cyano-N-(5-fluoropyridin-2-yl)-4-(2-methoxyphenoxy)benzenesulfonamide]",75
5,"CN(C)c1cccc(Oc2ccc(S(=O)(=O)Nc3ccc(F)cn3)cc2C#N)c1 [Example 131, 3-cyano-4-[3-(dimethylamino)phenoxy]-N-(5-fluoropyridin-2-yl)benzenesulfonamide]",> 10000
6,"N#Cc1cc(S(=O)(=O)Nc2ccc(F)cn2)ccc1Oc1cccc(C#N)c1Cl [Example 64, 4-(2-chloro-3-cyanophenoxy)-3-cyano-N-(5-fluoropyridin-2-yl)benzenesulfonamide]",> 1130
7,"N#Cc1cc(S(=O)(=O)Nc2ccc(F)cn2)ccc1Oc1ccccc1F [Example 41, 3-cyano-4-(2-fluorophenoxy)-N-(5-fluoropyridin-2-yl)benzenesulfonamide]",162
8,"N#Cc1cc(S(=O)(=O)Nc2cccnn2)ccc1Oc1ccc(Cl)cc1OC(F)F [Example 86, 4-[4-chloro-2-(difluoromethoxy)phenoxy]-3-cyano-N-(pyridazin-3-yl)benzenesulfonamide]",> 5330
9,N#Cc1ccc(Oc2cc(F)c(S(=O)(=O)Nc3ccc(F)cn3)cc2Cl)cc1F [compound 215],> 10000
10,N#Cc1cc(S(=O)(=O)Nc2ccc(F)cn2)ccc1Oc1ccc(Cl)c(CO)c1 [compound 240],106
11,"N#Cc1cc(S(=O)(=O)Nc2ccc(F)cn2)ccc1Oc1ccc(Cl)cc1I [Example 58, 4-(4-chloro-2-iodophenoxy)-3-cyano-N-(5-fluoropyridin-2-yl)benzenesulfonamide]",287
12,"COc1ccc(Oc2ccc(S(=O)(=O)Nc3ccc(F)cn3)cc2C#N)cc1F [Example 132, 3-cyano-4-(3-fluoro-4-methoxyphenoxy)-N-(5-fluoropyridin-2-yl)benzenesulfonamide]",38
13,"COc1ccc(Cl)c(Oc2ccc(S(=O)(=O)Nc3ccc(F)cn3)cc2C#N)c1 [Example 44, 4-(2-chloro-5-methoxyphenoxy)-3-cyano-N-(5-fluoropyridin-2-yl)benzenesulfonamide]",167
14,"N#Cc1ccc(Oc2ccc(S(=O)(=O)Nc3cc(F)ccn3)cc2C#N)cc1Cl [Example 104, 4-(3-chloro-4-cyanophenoxy)-3-cyano-N-(4-fluoropyridin-2-yl)benzenesulfonamide]",15
15,N#Cc1cc(Oc2ccc(S(=O)(=O)Nc3ncccn3)cc2C#N)ccc1F [compound 209],> 10000
16,"N#Cc1cc(S(=O)(=O)Nc2ccc(F)cn2)ccc1Oc1ccc(CO)c(Cl)c1 [Example 247, 4-[3-chloro-4-(hydroxymethyl)phenoxy]-3-cyano-N-(5-fluoropyridin-2-yl)benzenesulfonamide]",1
17,"N#Cc1cc(S(=O)(=O)Nc2ccc(F)cn2)ccc1Oc1ccc(F)c(C(F)(F)F)c1 [Example 48, 3-cyano-N-(5-fluoropyridin-2-yl)-4-[4-fluoro-3-(trifluoromethyl)phenoxy]benzenesulfonamide]",683
18,"N#Cc1cc(S(=O)(=O)Nc2ccc(F)cn2)ccc1Oc1ccccc1C(F)(F)F [Example 51, 3-cyano-N-(5-fluoropyridin-2-yl)-4-[2-(trifluoromethyl)phenoxy]benzenesulfonamide]",171
19,"N#Cc1cc(F)c(Oc2ccc(S(=O)(=O)Nc3ccc(F)cn3)cc2C#N)cc1F [Example 72, 3-cyano-4-(4-cyano-2,5-difluorophenoxy)-N-(5-fluoropyridin-2-yl)benzenesulfonamide]",77
20,"N#Cc1ccc(Oc2ccc(S(=O)(=O)Nc3cccnn3)cc2C#N)cc1F [Example 88, 3-cyano-4-(4-cyano-3-fluorophenoxy)-N-(pyridazin-3-yl)benzenesulfonamide]",429
21,"CSc1ccccc1Oc1ccc(S(=O)(=O)Nc2ccc(F)cn2)cc1C#N [Example 146, 3-cyano-N-(5-fluoropyridin-2-yl)-4-[2-(methylsulfanyl)phenoxy]benzenesulfonamide]",506
22,"N#Cc1cc(Cl)cc(Oc2ccc(S(=O)(=O)Nc3ccc(F)cn3)cc2C#N)c1 [Example 62, 4-(3-chloro-5-cyanophenoxy)-3-cyano-N-(5-fluoropyridin-2-yl)benzenesulfonamide]",27

row,SMILES,IC50 [nM]
1,"COc1ncc(Oc2ccc(S(=O)(=O)Nc3ccc(F)cn3)cc2C#N)cc1Cl [Example 70, 4-[(5-chloro-6-methoxypyridin-3-yl)oxy]-3-cyano-N-(5-fluoropyridin-2-yl)benzenesulfonamide]",25
2,"CCc1cc(F)ccc1Oc1ccc(S(=O)(=O)Nc2ccc(F)cn2)cc1C#N [Example 56, 3-cyano-4-(2-ethyl-4-fluorophenoxy)-N-(5-fluoropyridin-2-yl)benzenesulfonamide]",182
3,"N#Cc1cc(S(=O)(=O)Nc2ccc(F)cn2)ccc1Oc1ccc(F)cc1F [Example 7, 3-cyano-4-(2,4-difluorophenoxy)-N-(5-fluoropyridin-2-yl)benzenesulfonamide]",64
4,"N#Cc1cc(S(=O)(=O)Nc2ccc(F)cn2)ccc1Oc1ccc(Cl)cc1 [Example 20, 4-(4-chlorophenoxy)-3-cyano-N-(5-fluoropyridin-2-yl)benzenesulfonamide]",88
5,"N#Cc1cc(S(=O)(=O)Nc2ccc(F)cn2)ccc1Oc1cc(Cl)c(C#N)c(Cl)c1 [Example 241, 3-cyano-4-(3,5-dichloro-4-cyanophenoxy)-N-(5-fluoropyridin-2-yl)benzenesulfonamide]",3
6,"N#Cc1cc(S(=O)(=O)Nc2ccc(F)cn2)ccc1Oc1cccc(Cl)c1C#N [Example 179, 4-(3-chloro-2-cyanophenoxy)-3-cyano-N-(5-fluoropyridin-2-yl)benzenesulfonamide]",> 728
7,"Cc1cc(Oc2ccc(S(=O)(=O)Nc3ccc(F)cn3)cc2C#N)cc(C)c1C#N [compound 235, 3-cyano-4-({4-cyano-3,5-bis[methyl-D3]-2,3-D2-phenyl}oxy)-N-(5-fluoropyridin-2-yl)benzenesulfonamide]",13
8,"Cc1cc(Oc2ccc(S(=O)(=O)Nc3ccc(F)cn3)cc2C#N)ccc1C(C)C [Example 139, 3-cyano-N-(5-fluoropyridin-2-yl)-4-[3-methyl-4-(propan-2-yl)phenoxy]benzenesulfonamide]",> 10000
9,"N#Cc1ccc(Oc2ccc(S(=O)(=O)Nc3ncccn3)cc2C#N)cc1Cl [Example 90, 4-(3-chloro-4-cyanophenoxy)-3-cyano-N-(pyrimidin-2-yl)benzenesulfonamide]",> 3580
10,"Cc1ccnc(NS(=O)(=O)c2ccc(Oc3cccc(Cl)c3C#N)cc2)n1 [Example 220, 4-(3-chloro-2-cyanophenoxy)-N-(4-methylpyrimidin-2-yl)benzenesulfonamide]",> 10000
11,"Cc1ccc(F)c(Oc2ccc(S(=O)(=O)Nc3ccc(F)cn3)cc2C#N)c1Cl [Example 108, 4-(2-chloro-6-fluoro-3-methylphenoxy)-3-cyano-N-(5-fluoropyridin-2-yl)benzenesulfonamide]",98
12,"CCOc1cc(Cl)ccc1Oc1ccc(S(=O)(=O)Nc2ccc(F)cn2)cc1C#N [Example 110, 4-(4-chloro-2-ethoxyphenoxy)-3-cyano-N-(5-fluoropyridin-2-yl)benzenesulfonamide]",123
13,"Cc1cc(Cl)c(Oc2ccc(S(=O)(=O)Nc3ccc(F)cn3)cc2C#N)cc1C [Example 136, 4-(2-chloro-4,5-dimethylphenoxy)-3-cyano-N-(5-fluoropyridin-2-yl)benzenesulfonamide]",> 10000
14,"N#Cc1ccc(Oc2ccc(S(=O)(=O)Nc3cnccn3)cc2C#N)cc1Cl [Example 93, 4-(3-chloro-4-cyanophenoxy)-3-cyano-N-(pyrazin-2-yl)benzenesulfonamide]",2980
15,"N#Cc1cc(S(=O)(=O)Nc2ccc(F)cn2)ccc1Oc1cc(F)c(C#N)c(Cl)c1 [compound 237, 4-(3-chloro-4-cyano-5-fluorophenoxy)-3-cyano-N-(5-fluoropyridin-2-yl)benzenesulfonamide]",8
16,"COc1cccc(C)c1Oc1ccc(S(=O)(=O)Nc2ccc(F)cn2)cc1C#N [Example 115, 3-cyano-N-(5-fluoropyridin-2-yl)-4-(2-methoxy-6-methylphenoxy)benzenesulfonamide]",24
17,"N#Cc1ccc(Oc2ccc(S(=O)(=O)Nc3ccncc3)cc2C#N)cc1Cl [Example 100, 4-(3-chloro-4-cyanophenoxy)-3-cyano-N-(pyridin-4-yl)benzenesulfonamide]",> 10000
18,"N#Cc1cc(S(=O)(=O)Nc2ccc(F)cn2)ccc1Oc1cnc(C#N)c(Cl)c1 [Example 68, 4-[(5-chloro-6-cyanopyridin-3-yl)oxy]-3-cyano-N-(5-fluoropyridin-2-yl)benzenesulfonamide]",155
19,"N#Cc1ccc(Oc2ccc(S(=O)(=O)Nc3ccc(F)cn3)cc2C#N)cc1 [Example 10, 3-cyano-4-(4-cyanophenoxy)-N-(5-fluoropyridin-2-yl)benzenesulfonamide]",74
20,"CCOc1ncccc1Oc1ccc(S(=O)(=O)Nc2ccc(F)cn2)cc1C#N [Example 154, 3-cyano-4-[(2-ethoxypyridin-3-yl)oxy]-N-(5-fluoropyridin-2-yl)benzenesulfonamide]",> 10000
21,"Cc1ccc(Oc2ccc(S(=O)(=O)Nc3ccc(F)cn3)cc2C#N)c(F)c1F [Example 128, 3-cyano-4-(2,3-difluoro-4-methylphenoxy)-N-(5-fluoropyridin-2-yl)benzenesulfonamide]",> 10000
